Results reported in ChEMBL document CHEMBL4043153, “Lead selection of antiparasitic compounds from a focused library of benzenesulfonyl derivatives of heterocycles” (Bioorg Med Chem Lett, 2017).
Activity calls are given as the source filed them. The calls are words filed in the database; no cut-off is given here.

What was measured:
[1] = Selectivity index, ratio of IC50 for rat L6 cells to IC50 for Trypanosoma cruzi Tulahuen C4 intracellular amastigotes infected in rat L6 cells; format: toxicity, cell-based; conditions: read-out: Ratio IC50
[2] = Selectivity index, ratio of IC50 for rat L6 cells to IC50 for intraerythrocytic form of chloroquine/pyrimethamine-resistant Plasmodium falciparum K1 infected in human RBC; format: toxicity; conditions: read-out: Ratio IC50
Leishmania donovani [3] = assay: Antiparasitic activity against Leishmania donovani MHOM-ET-67/L82 axenic amastigotes; format: functional
Trypanosoma cruzi [4] = assay: Antiparasitic activity against Trypanosoma cruzi Tulahuen C4 intracellular amastigotes infected in rat L6 cells; format: functional, cell-based
Plasmodium falciparum [5] = assay: Antiparasitic activity against intraerythrocytic form of chloroquine/pyrimethamine-resistant Plasmodium falciparum K1; format: functional
L6 [6] = assay: Cytotoxicity against rat L6 cells; format: cell-based
Leishmania donovani [7] = assay: Antiparasitic activity against Leishmania donovani MHOM-ET-67/L82 axenic amastigotes assessed as growth inhibition at 0.8 ug/ml after 72 hrs by resazurin dye-based fluorometric analysis relative to control; format: functional; conditions: MHOM-ET-67/L82, 72 h, read-out: GI
Leishmania donovani [8] = assay: Antiparasitic activity against Leishmania donovani MHOM-ET-67/L82 axenic amastigotes assessed as growth inhibition at 4.8 ug/ml after 72 hrs by resazurin dye-based fluorometric analysis relative to control; format: functional; conditions: MHOM-ET-67/L82, 72 h, read-out: GI
Trypanosoma cruzi [9] = assay: Antiparasitic activity against Trypanosoma cruzi Tulahuen C4 intracellular amastigotes infected in rat L6 cells assessed as growth inhibition at 0.8 ug/ml after 96 hrs by CPRG/Nonidet reagent based photometric analysis relative to control; format: functional; conditions: Tulahuen C4, L6, 96 h, read-out: GI
Trypanosoma cruzi [10] = assay: Antiparasitic activity against Trypanosoma cruzi Tulahuen C4 intracellular amastigotes infected in rat L6 cells assessed as growth inhibition at 4.8 ug/ml after 96 hrs by CPRG/Nonidet reagent based photometric analysis relative to control; format: functional; conditions: Tulahuen C4, L6, 96 h, read-out: GI
Plasmodium falciparum [11] = assay: (§1) Antiparasitic activity against intraerythrocytic form of chloroquine/pyrimethamine-resistant Plasmodium falciparum K1 infected in human RBC assessed as growth inhibition at 0.8 ug/ml preincubated for 48 hrs followed by [3H]-hypoxanthine addition measured after 24 hrs by liquid scintillation counting analysis relative to control; format: functional; conditions: read-out: GI
Plasmodium falciparum [12] = assay: as §1, with “4.8” for “0.8”; format: functional; conditions: read-out: GI
[13] = system: Trypanosoma brucei rhodesiense; assay: Antiparasitic activity against Trypanosoma brucei rhodesiense STIB 900 trypomastigote bloodstream form assessed as growth inhibition at 0.8 ug/ml after 72 hrs by resazurin dye-based fluorometric analysis relative to control; format: functional; conditions: STIB 900, 72 h, read-out: GI
[14] = system: Trypanosoma brucei rhodesiense; assay: Antiparasitic activity against Trypanosoma brucei rhodesiense STIB 900 trypomastigote bloodstream form assessed as growth inhibition at 4.8 ug/ml after 72 hrs by resazurin dye-based fluorometric analysis relative to control; format: functional; conditions: STIB 900, 72 h, read-out: GI
Leishmania donovani [15] = assay: Antiparasitic activity against Leishmania donovani MHOM-ET-67/L82 axenic amastigotes after 72 hrs by Alamar blue assay; format: functional; conditions: MHOM-ET-67/L82, 72 h
Trypanosoma cruzi [16] = assay: Antiparasitic activity against Trypanosoma cruzi Tulahuen C4 intracellular amastigotes infected in rat L6 cells after 96 hrs by CPRG/Nonidet reagent based photometric analysis; format: functional, cell-based; conditions: Tulahuen C4, L6, 96 h
Plasmodium falciparum [17] = assay: Antiparasitic activity against intraerythrocytic form of chloroquine/pyrimethamine-resistant Plasmodium falciparum K1 infected in human RBC preincubated for 48 hrs followed by [3H]-hypoxanthine addition measured after 24 hrs by liquid scintillation counting analysis; format: functional
L6 [18] = assay: Cytotoxicity against rat L6 cells assessed as cell viability after 72 hrs by Alamar blue assay; format: cell-based; conditions: L6, 72 h
[19] = Selectivity index, ratio of IC50 for rat L6 cells to IC50 for Leishmania donovani MHOM-ET-67/L82 axenic amastigotes; format: toxicity; conditions: read-out: Ratio IC50

## O=[N+]([O-])c1ccc(S(=O)(=O)N2CCCc3ccccc32)cc1
[1]
  selectivity ratio: 21.7
[2]
  selectivity ratio: 29.9
Leishmania donovani [3]
  IC50: > 271 µM
Trypanosoma cruzi [4]
  IC50: 11.4 µM
Plasmodium falciparum [5]
  IC50: 8.31 µM
L6 [6]
  IC50: 248 µM

## CC1Cc2ccccc2N1S(=O)(=O)c1ccc(C(C)(C)C)cc1 (stereo not drawn)
Leishmania donovani [7]
  inhibition of growth at 0.8 µg/mL: 53.3%
Leishmania donovani [8]
  inhibition of growth at 4.8 µg/mL: 100%
Trypanosoma cruzi [9]
  inhibition of growth at 0.8 µg/mL: 7.7%
Trypanosoma cruzi [10]
  inhibition of growth at 4.8 µg/mL: 100%
Plasmodium falciparum [11]
  inhibition of growth at 0.8 µg/mL: 52.8%
Plasmodium falciparum [12]
  inhibition of growth at 4.8 µg/mL: 99.9%
[13]
  inhibition of growth at 0.8 µg/mL: 0%
[14]
  inhibition of growth at 4.8 µg/mL: 6.4%
Leishmania donovani [15]
  IC50: 1.53 µM
Trypanosoma cruzi [16]
  IC50: 6.98 µM
Plasmodium falciparum [17]
  IC50: 1.5 µM
L6 [18]
  IC50: 12.2 µM
[19]
  selectivity ratio: 7.95
[1]
  selectivity ratio: 1.74
[2]
  selectivity ratio: 8.1

## Cc1cc(C)c(C)c(S(=O)(=O)N2c3ccccc3CC2C)c1C (stereo not drawn)
Leishmania donovani [7]
  inhibition of growth at 0.8 µg/mL: 77.2%
Leishmania donovani [8]
  inhibition of growth at 4.8 µg/mL: 100%
Trypanosoma cruzi [9]
  inhibition of growth at 0.8 µg/mL: 0%
Trypanosoma cruzi [10]
  inhibition of growth at 4.8 µg/mL: 75.2%
Plasmodium falciparum [11]
  inhibition of growth at 0.8 µg/mL: 5.5%
Plasmodium falciparum [12]
  inhibition of growth at 4.8 µg/mL: 76.7%
[13]
  inhibition of growth at 0.8 µg/mL: 0%
[14]
  inhibition of growth at 4.8 µg/mL: 0%
Leishmania donovani [15]
  IC50: 0.23 µM
L6 [18]
  IC50: 6.62 µM
[19]
  selectivity ratio: 28.8

## CC1Cc2ccccc2N1S(=O)(=O)c1ccc([N+](=O)[O-])cc1 (stereo not drawn)
Leishmania donovani [7]
  inhibition of growth at 0.8 µg/mL: 41.7%
Leishmania donovani [8]
  inhibition of growth at 4.8 µg/mL: 79.5%
Trypanosoma cruzi [9]
  inhibition of growth at 0.8 µg/mL: 19.4%
Trypanosoma cruzi [10]
  inhibition of growth at 4.8 µg/mL: 94.4%
Plasmodium falciparum [11]
  inhibition of growth at 0.8 µg/mL: 18%
Plasmodium falciparum [12]
  inhibition of growth at 4.8 µg/mL: 72.6%
[13]
  inhibition of growth at 0.8 µg/mL: 6.9%
[14]
  inhibition of growth at 4.8 µg/mL: 68.2%
Trypanosoma cruzi [16]
  IC50: 2.8 µM
Plasmodium falciparum [17]
  Activity: Active
L6 [18]
  IC50: 69.4 µM
[1]
  selectivity ratio: 24.8

## Cc1cc(C)c(C)c(S(=O)(=O)N2c3ccccc3CCC2C)c1C (stereo not drawn)
Leishmania donovani [7]
  inhibition of growth at 0.8 µg/mL: 73.1%
Leishmania donovani [8]
  inhibition of growth at 4.8 µg/mL: 100%
Trypanosoma cruzi [9]
  inhibition of growth at 0.8 µg/mL: 9.7%
Trypanosoma cruzi [10]
  inhibition of growth at 4.8 µg/mL: 69.3%
Plasmodium falciparum [11]
  inhibition of growth at 0.8 µg/mL: 6.7%
Plasmodium falciparum [12]
  inhibition of growth at 4.8 µg/mL: 78%
[13]
  inhibition of growth at 0.8 µg/mL: 0%
[14]
  inhibition of growth at 4.8 µg/mL: 0%
Leishmania donovani [15]
  IC50: 0.62 µM
L6 [18]
  IC50: 12.4 µM
[19]
  selectivity ratio: 20

## O=[N+]([O-])c1ccc(S(=O)(=O)N2CCc3ccccc32)cc1
Leishmania donovani [7]
  inhibition of growth at 0.8 µg/mL: 37.6%
Leishmania donovani [8]
  inhibition of growth at 4.8 µg/mL: 100%
Trypanosoma cruzi [9]
  inhibition of growth at 0.8 µg/mL: 34.7%
Trypanosoma cruzi [10]
  inhibition of growth at 4.8 µg/mL: 100%
Plasmodium falciparum [11]
  inhibition of growth at 0.8 µg/mL: 0%
Plasmodium falciparum [12]
  inhibition of growth at 4.8 µg/mL: 69.7%
[13]
  inhibition of growth at 0.8 µg/mL: 27.4%
[14]
  inhibition of growth at 4.8 µg/mL: 98%
Trypanosoma cruzi [16]
  IC50: 1.15 µM
Plasmodium falciparum [17]
  Activity: Active
L6 [18]
  IC50: 9.1 µM
[1]
  selectivity ratio: 7.9

## Cc1cc(C)c(C)c(S(=O)(=O)N2CCc3ccccc32)c1C
Leishmania donovani [7]
  inhibition of growth at 0.8 µg/mL: 61.3%
Leishmania donovani [8]
  inhibition of growth at 4.8 µg/mL: 100%
Trypanosoma cruzi [9]
  inhibition of growth at 0.8 µg/mL: 10.3%
Trypanosoma cruzi [10]
  inhibition of growth at 4.8 µg/mL: 31.4%
Plasmodium falciparum [11]
  inhibition of growth at 0.8 µg/mL: 3.3%
Plasmodium falciparum [12]
  inhibition of growth at 4.8 µg/mL: 41.8%
[13]
  inhibition of growth at 0.8 µg/mL: 5.5%
[14]
  inhibition of growth at 4.8 µg/mL: 5.7%
Leishmania donovani [15]
  IC50: 0.73 µM
L6 [18]
  IC50: 12.6 µM
[19]
  selectivity ratio: 17.2
